Test system: HIV
Experiment: HIV infection in cell culture (H9 cells, 2% FCS)
Format: cell-based
Conditions: Human immunodeficiency virus 1, HIV-infected H9 cells, suppression of 50% of virus-induced syncytia
Description: The HIV test is conducted according to the method of Pauswels et al. [cf. Journal of Virological Methods 1988, 20, 309-321], with modifications.
Primary human blood lymphocytes (PBLs) are enriched using Ficoll-Hypaque and stimulated, in RPMI 1640 medium, 20% fetal calf serum, with phytohemagglutinin (90 μg/ml) and interleukin-2 (40 U/ml). For the infection with the infectious HIV, the PBLs are pelletted and the cell pellet is subsequently suspended in 1 ml of a suitable diluted HIV virus adsorption solution and incubated for 1 hour at 37° C. (pellet infection). Unabsorbed virus is subsequently removed by centrifugation, and the infected cells are transferred to test plates (e.g. 96-well microtiter plates), which contain the test substances in a suitable dilution.
Alternatively, for example HIV-susceptible, permanent H9 cells (ATCC or NIAID, USA) are used instead of normal human blood lymphocytes for testing the antiviral effects of the compounds of the invention. Infected H9 cells are grown for test purposes in RPMI 1640 medium, 2% and/or 20% fetal calf serum.
The virus adsorption solution is centrifuged and the infected cell pellet is taken up in growth medium, so as to give 1×10^5 cells per ml. The cells infected in this way are pipetted at approx. 1×10^4 cells/well into the wells of 96-well microtiter plates (pellet infection). Alternatively the HIV is pipetted in separately only after preparation of the substance dilutions in the microtiter plates and after addition of the cells (supernatant infection).
The first vertical row of the microtiter plate contains only growth medium and cells that are not infected, but are otherwise treated exactly as described above (cell control). The second vertical row of the microtiter plate receives only HIV-infected cells (virus control) in growth medium. The other wells contain the compounds of the invention in various concentrations, starting from the wells of the 3rd vertical row of the microtiter plate, from which the test substances are diluted 2^10-fold in 2-fold steps.
Alternatively, supernatant infections are carried out (see above), in which the cells are sown in 96-well plates. The HIV virus is then added in a volume of 50 μl.
The test preparations are incubated at 37° C., until the formation of syncytia that is typical of HIV occurs in the untreated virus control (between day 3 and 6 after infection), which is then evaluated either microscopically or by p24 ELISA detection methods (Vironostika, BioMerieux, The Netherlands) or photometrically or fluorometrically using Alamar Blue indicator dye.
The IC50 values are determined as the concentration of the test substance at which 50% (approx. 20-100 syncytia) of the virus-induced syncytia are suppressed by the treatment with the compound of the invention. The cut-off values are set correspondingly in the ELISA test and in the photometric or fluorometric determination using Alamar Blue. In addition to determination of the antiviral effects, the treated cell cultures are also investigated microscopically with respect to cytotoxic, cytostatic or cytological changes and with respect to solubility. Active compounds that show cell-altering, cytotoxic findings in the concentration range of the activity are not assessed for their antiviral activity.

| SMILES | IC50 |
| --- | --- |
| O=CN1CCN(C(=O)c2cc(-c3cccc(SC(F)(F)F)c3)n(-c3cccc(Cl)c3)n2)CC1 [Example 15, 4-{[1-(3-Chlorophenyl)-5-(3-trifluoromethylthiophenyl)-1H-pyrazol-3-yl]carbonyl}-piperazine-1-carbaldehyde] | 0.15 µM |
| O=C(c1cc(-c2cccc(C(F)(F)F)c2)n(-c2cccc(Cl)c2)n1)N1CCSC1 [Example 43] | 0.1 µM |
| O=C(c1cc(-c2cccc(C(F)(F)F)c2)n(-c2cccc(Cl)c2)n1)N1CCC(O)C1 (centres unmarked) [Example 2] | 0.05 µM |
| O=C(c1cc(-c2ccccc2)n(-c2cccc(Cl)c2)n1)N1CCSC1 [Example 34] | 0.08 µM |

Second part, the compound after the results:

| IC50 | SMILES |
| --- | --- |
| 0.1 µM | O=C(c1cc(-c2cccc(OC(F)(F)F)c2)n(-c2cccc(Cl)c2)n1)N1CCSC1 [Example 6] |
| 0.04 µM | N#Cc1cccc(-c2cc(C(=O)N3CCOCC3)nn2-c2cccc(Cl)c2)c1 [Example 32] |
| 0.1 µM | COc1ccc(-c2cc(C(=O)N3CCOCC3)nn2-c2cccc(Cl)c2)cc1OC [Example 35] |
| 0.04 µM | O=C(c1cc(-c2cccc(OC(F)(F)F)c2)n(-c2cccc(Cl)c2)n1)N1CCCOCC1 [Example 5] |
| 0.05 µM | O=C(c1cc(-c2ccccc2)n(-c2cccc(Cl)c2)n1)N1CCOCC1 [Example 33] |
| 0.05 µM | O=C(c1cc(-c2cccc(OC(F)(F)F)c2)n(-c2cccc(Cl)c2)n1)N1CC[C@@H](O)C1 [Example 10] |
| 0.05 µM | O=C(c1cc(-c2cccc(OC(F)(F)F)c2)n(-c2cccc(Cl)c2)n1)N1CCOCC1 [Example 4] |

Source: patent US8314089B2, “Substituted pyrazolamides and their use” (AiCuris GmbH & Co. KG, priority 2008, dated 2012)
